Reference: ChEMBL document CHEMBL4138130, “Effect of mofezolac-galactose distance in conjugates targeting cyclooxygenase (COX)-1 and CNS GLUT-1 carrier” (Eur J Med Chem, 2017)
pIC50: −log10 of the molar value. Activity calls are given as the source filed them. The calls are words filed in the database; no cut-off is given here.

Experiments:
Caco-2 [1] = test: Cell cycle arrest in human Caco2 cells assessed as accumulation at G0/G1-phase at 100 uM after 24 hrs by propidium iodide staining based flow cytometry; assay type: functional
Caco-2 [2] = test: Cell cycle arrest in human Caco2 cells assessed as accumulation at S-phase at 100 uM after 24 hrs by propidium iodide staining based flow cytometry; assay type: functional
[3] = Apparent permeability across apical to basolateral side in human Caco2 cells at 100 uM after 120 mins by UV-Visible spectroscopic method; assay type: ADME, cell-based; conditions: Caco-2
[4] = target: T1, Prostaglandin G/H synthase 2 (Homo sapiens) (UniProt P35354); test: Inhibition of human COX2 assessed as reduction in appearance of oxidized TMPD at 50 uM using arachidonic acid as substrate by colorimetric assay relative to control
T1 sequence (whole entry): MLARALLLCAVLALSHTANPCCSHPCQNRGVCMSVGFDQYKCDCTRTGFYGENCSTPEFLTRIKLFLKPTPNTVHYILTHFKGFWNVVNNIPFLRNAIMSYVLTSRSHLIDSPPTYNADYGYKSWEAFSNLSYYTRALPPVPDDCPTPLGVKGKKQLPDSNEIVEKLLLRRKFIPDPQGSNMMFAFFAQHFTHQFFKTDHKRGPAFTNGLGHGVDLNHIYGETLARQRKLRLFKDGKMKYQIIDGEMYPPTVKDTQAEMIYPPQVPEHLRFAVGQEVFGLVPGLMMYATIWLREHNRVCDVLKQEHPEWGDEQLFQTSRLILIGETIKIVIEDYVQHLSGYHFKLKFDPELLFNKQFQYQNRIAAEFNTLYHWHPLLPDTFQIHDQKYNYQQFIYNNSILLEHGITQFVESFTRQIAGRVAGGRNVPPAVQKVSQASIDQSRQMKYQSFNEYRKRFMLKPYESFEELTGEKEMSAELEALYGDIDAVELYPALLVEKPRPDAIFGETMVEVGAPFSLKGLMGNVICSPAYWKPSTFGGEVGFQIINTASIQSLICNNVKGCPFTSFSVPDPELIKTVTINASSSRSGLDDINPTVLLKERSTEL

[5] = target: T2, GLUT1 (Solute carrier family 2, facilitated glucose transporter member 1) (Homo sapiens, UniProt P11166); test: Apparent permeability across basolateral to apical side in human Caco2 cells assessed as GLUT1-mediated drug transport at 100 uM after 120 mins by UV-Visible spectroscopic method; assay type: ADME, cell-based; conditions: Caco-2
T2 sequence (P11166 whole entry): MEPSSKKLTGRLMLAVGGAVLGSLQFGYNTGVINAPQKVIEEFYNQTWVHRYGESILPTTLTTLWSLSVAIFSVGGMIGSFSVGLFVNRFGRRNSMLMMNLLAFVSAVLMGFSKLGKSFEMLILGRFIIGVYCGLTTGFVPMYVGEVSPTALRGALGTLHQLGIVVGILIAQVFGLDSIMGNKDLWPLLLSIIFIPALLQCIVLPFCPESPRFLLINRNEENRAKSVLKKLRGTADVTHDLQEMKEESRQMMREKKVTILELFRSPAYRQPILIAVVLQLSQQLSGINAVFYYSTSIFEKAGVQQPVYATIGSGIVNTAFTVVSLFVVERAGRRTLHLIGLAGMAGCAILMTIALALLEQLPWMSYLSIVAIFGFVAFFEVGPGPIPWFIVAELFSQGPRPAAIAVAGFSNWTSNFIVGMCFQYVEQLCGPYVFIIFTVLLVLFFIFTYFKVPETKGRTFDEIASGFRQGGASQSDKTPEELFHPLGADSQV

Caco-2 [6] = test: Cell cycle arrest in human Caco2 cells assessed as accumulation at G2/M-phase at 100 uM after 24 hrs by propidium iodide staining based flow cytometry; assay type: functional
[7] = target: T3, Prostaglandin G/H synthase 1 (Mus musculus) (UniProt P22437); test: Inhibition of COX1 in mouse BV2 cells assessed as reduction in LPS-stimulated PGE2 release by measuring PGE2 level at 0.5 uM preincubated for 1 hr followed by LPS addition measured after 48 hrs by immunoassay (reference value: 0.7555 +/- 0.032 ng/ml); assay type: cell-based
T3 sequence (whole entry): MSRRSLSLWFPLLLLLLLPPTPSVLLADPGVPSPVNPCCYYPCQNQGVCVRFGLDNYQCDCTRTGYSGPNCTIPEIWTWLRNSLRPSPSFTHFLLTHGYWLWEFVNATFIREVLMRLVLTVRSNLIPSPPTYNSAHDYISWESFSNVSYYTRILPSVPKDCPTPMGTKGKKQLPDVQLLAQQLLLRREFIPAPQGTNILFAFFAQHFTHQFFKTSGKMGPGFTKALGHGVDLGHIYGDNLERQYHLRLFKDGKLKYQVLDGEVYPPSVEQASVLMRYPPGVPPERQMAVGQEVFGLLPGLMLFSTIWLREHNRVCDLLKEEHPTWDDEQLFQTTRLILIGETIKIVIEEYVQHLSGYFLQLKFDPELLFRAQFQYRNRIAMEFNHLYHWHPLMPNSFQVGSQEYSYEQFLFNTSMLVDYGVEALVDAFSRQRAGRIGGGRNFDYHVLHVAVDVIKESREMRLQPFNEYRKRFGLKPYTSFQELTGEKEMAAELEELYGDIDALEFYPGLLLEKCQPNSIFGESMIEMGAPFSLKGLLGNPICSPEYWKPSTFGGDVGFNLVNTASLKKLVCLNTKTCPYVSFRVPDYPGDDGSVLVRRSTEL

[8] = target: T4, Solute carrier family 2, facilitated glucose transporter member 1 (Homo sapiens, UniProt P11166); test: Permeability across basolateral to apical side in human Caco2 cells assessed as GLUT1-mediated drug transport by transportability method; assay type: ADME, cell-based; conditions: Caco-2
T4 sequence (P11166 whole entry): T2 sequence (P11166 whole entry)

[9] = target: T5, Prostaglandin G/H synthase 1 (Homo sapiens, UniProt P23219); test: Inhibition of human COX1 assessed as reduction in appearance of oxidized TMPD at 50 uM using arachidonic acid as substrate by colorimetric assay relative to control
[10] = target: T5, Prostaglandin G/H synthase 1; test: Inhibition of human COX1 assessed as reduction in appearance of oxidized TMPD using arachidonic acid as substrate by colorimetric assay
Homo sapiens = species: Homo sapiens; test: Selectivity index, ratio of IC50 for inhibition of human COX2 to IC50 for inhibition of human COX1
[11] = target: T4, Solute carrier family 2, facilitated glucose transporter member 1; test: Inhibition of GLUT1-mediated 2NBDG uptake in human Caco2 cells at 0.01 to 0.1 mM after 10 mins by Hoechst 33342 staining based fluorescence assay; assay type: cell-based; conditions: caco-2, 10 min, 100 µM
[12] = target: T6, Prostaglandin G/H synthase 2 (Homo sapiens, UniProt P35354); test: Inhibition of human COX2 assessed as reduction in appearance of oxidized TMPD using arachidonic acid as substrate by colorimetric assay
T6 sequence (P35354 whole entry): T1 sequence (whole entry)

[13] = Chemical stability in pH 7.3 simulated blood fluid at 2.5 mg/ml after 60 mins by HPLC analysis; assay type: ADME, physicochemical; conditions: pH 7.3, 1 h
[14] = target: T3, Prostaglandin G/H synthase 1 (Mus musculus); test: Inhibition of COX1 in mouse BV2 cells assessed as reduction in LPS-stimulated PGE2 release by measuring PGE2 level at 1 uM preincubated for 1 hr followed by LPS addition measured after 48 hrs by immunoassay (reference value: 0.7555 +/- 0.032 ng/ml); assay type: cell-based
[15] = target: T3, Prostaglandin G/H synthase 1 (Mus musculus); test: Inhibition of COX1 in mouse BV2 cells assessed as reduction in LPS-stimulated PGE2 release by measuring PGE2 level at 10 uM preincubated for 1 hr followed by LPS addition measured after 48 hrs by immunoassay (reference value: 0.7555 +/- 0.032 ng/ml); assay type: cell-based
[16] = Chemical stability in pH 1 simulated gastric fluid at 2.5 mg/ml after 60 mins by HPLC analysis; assay type: ADME, physicochemical; conditions: simulated gi fluid, pH 1, 1 h
[17] = Retention time of the compound by HPLC analysis; assay type: physicochemical
[18] = Metabolic stability in rat liver S9 fraction after 30 mins in presence of NADP+ by HPLC analysis; assay type: ADME, subcellular; conditions: s9, 0.5 h
[19] = Chemical stability in pH 8.8 simulated gut district fluid at 2.5 mg/ml after 60 mins by HPLC analysis; assay type: ADME, physicochemical; conditions: buffer, pH 8.8, 1 h
[20] = target: T4, Solute carrier family 2, facilitated glucose transporter member 1; test: Inhibition of GLUT1-mediated 2NBDG uptake in human Caco2 cells at 1 to 10 mM after 10 mins by Hoechst 33342 staining based fluorescence assay; assay type: cell-based; conditions: caco-2, 10 min, 10000 µM

T5 sequence (P23219 whole entry): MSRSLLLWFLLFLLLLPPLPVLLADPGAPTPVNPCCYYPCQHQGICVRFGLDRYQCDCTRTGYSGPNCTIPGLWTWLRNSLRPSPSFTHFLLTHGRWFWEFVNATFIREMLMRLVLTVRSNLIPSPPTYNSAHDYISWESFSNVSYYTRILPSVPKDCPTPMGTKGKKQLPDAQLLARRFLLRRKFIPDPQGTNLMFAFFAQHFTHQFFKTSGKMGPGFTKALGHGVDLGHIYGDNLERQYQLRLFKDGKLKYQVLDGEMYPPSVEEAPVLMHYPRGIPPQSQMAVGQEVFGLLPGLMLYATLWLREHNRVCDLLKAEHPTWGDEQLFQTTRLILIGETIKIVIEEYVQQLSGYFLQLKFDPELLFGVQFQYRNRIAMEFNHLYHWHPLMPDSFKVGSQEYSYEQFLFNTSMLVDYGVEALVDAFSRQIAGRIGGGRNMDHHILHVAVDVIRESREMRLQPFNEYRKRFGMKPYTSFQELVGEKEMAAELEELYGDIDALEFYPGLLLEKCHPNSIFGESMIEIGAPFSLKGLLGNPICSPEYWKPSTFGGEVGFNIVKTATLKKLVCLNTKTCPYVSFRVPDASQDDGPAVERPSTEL

Row | Compound | Activity (Caco-2 [1]) | Activity (Caco-2 [2]) | Papp A→B at 2 h, 100 µM [3] | inhibition [4] | Papp B→A at 2 h, 100 µM [5] | Activity (Caco-2 [6]) | Activity [7] | permeability [8] | inhibition [9] | pIC50 [10] | Ratio IC50 (Homo sapiens) | inhibition (INH) [11] | pIC50 [12] | further results
1 | COc1ccc(-c2noc(CC(=O)O)c2-c2ccc(OC)cc2)cc1 [MOFEZOLAC] | inactive | inactive | 41.4 ×10⁻⁶ cm/s | 38% | 46.1 ×10⁻⁶ cm/s | inactive | 0.0328 ng/mL | Permeable | 100% |  |  |  |  | 
2 | COc1ccc(-c2noc(CC(=O)NCCCCCCCCCCC(=O)OC[C@H]3OC(O)[C@H](O)[C@@H](O)[C@H]3O)c2-c2ccc(OC)cc2)cc1 (some centres not stated) | inactive | inactive | 16.9 ×10⁻⁶ cm/s | 64% | 58.7 ×10⁻⁶ cm/s | inactive |  | Permeable | 90% | 6.40 | 0.67 | Active | 6.57 | 
3 | COc1ccc(-c2noc(CC(=O)OC[C@H]3O[C@@H](O)[C@H](O)[C@@H](O)[C@H]3O)c2-c2ccc(OC)cc2)cc1 | inactive | inactive | 38 ×10⁻⁶ cm/s | 87% | 87.5 ×10⁻⁶ cm/s | inactive | 0.0086 ng/mL | Permeable | 100% | 6.57 | 11.5 | Active | 5.51 | Stability [13]: Stable; Activity [14]: 0.0178 ng/mL; Activity [15]: 0.0103 ng/mL; Stability [16]: Stable; Retention_time [17]: 7.504 min; Stability [18]: Stable; Stability [19]: Stable
4 | OC[C@H]1OC(O)[C@H](O)[C@@H](O)[C@@H]1O (some centres not stated) [DEXTROSE] |  |  |  |  |  |  |  |  |  |  |  |  |  | inhibition (INH) [20]: Active
5 | COc1ccc(-c2noc(CC(=O)NCCCCC(=O)OC[C@H]3OC(O)[C@H](O)[C@@H](O)[C@H]3O)c2-c2ccc(OC)cc2)cc1 (some centres not stated) |  | Active | 23.3 ×10⁻⁶ cm/s | 24% | 113 ×10⁻⁶ cm/s | Active |  | Permeable | 38% | < 4.30 |  | Active | < 4.30 | 
